Key:
[1] = biological target: Bovine Serum Albumin (BSA) (Bos taurus, UniProt P02769); experiment: SPR binding of ferulic acid to pre-immobilized BSA; conditions: 10, 20, and 50 μM injected; flow rate 1 mL/h
Method: By injecting solutions containing different concentrations of FA and recording the resultant sensorgrams, the binding constant between FA and BSA was measured. […] Three different FA concentrations (10, 20, and 50 μM) were injected. A flow rate of 1 mL/h was used. [drawing 1] [drawing] Representative SPR sensorgrams showing binding of ferulic acid (structure on the left) onto pre-immobilized BSA molecules.

[2] = biological target: TrpS protein (tryptophanyl tRNA synthetase) (Escherichia coli, UniProt P00954); experiment: Target-inhibitor interaction by SPR; format: binding
Source text: (§1) We have examined specific binding interactions between select target proteins and their specific inhibitors. […] [drawing]

[3] = biological target: MurG protein (Escherichia coli, UniProt P17443); experiment: Target-inhibitor interaction by SPR; format: binding
Source text: as §1

[4] = test system: A. baumannii clinical isolate NY A; experiment: Antibiotic susceptibility profile; format: cell-based, Acinetobacter baumannii; parameters: key: Resistance; Intermediate; Susceptible
In short: (§2)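 R/I/S calls per drug; panel limited to agents having A. baumannii breakpoints; isolates from hospital-acquired infections, LA County and NYC.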

[5] = test system: A. baumannii clinical isolate NY H; experiment: Antibiotic susceptibility profile; format: cell-based, Acinetobacter baumannii; parameters: key: Resistance; Intermediate; Susceptible
In short: as §2

[6] = test system: A. baumannii reference strain SDF; experiment: Antibiotic susceptibility profile; format: cell-based, Acinetobacter baumannii; parameters: key: Resistance; Intermediate; Susceptible
In short: as §2

[7] = test system: A. baumannii clinical isolate LAC 11; experiment: Antibiotic susceptibility profile; format: cell-based, Acinetobacter baumannii; parameters: key: Resistance; Intermediate; Susceptible
In short: as §2

[8] = test system: A. baumannii clinical isolate LAC 13; experiment: Antibiotic susceptibility profile; format: cell-based, Acinetobacter baumannii; parameters: key: Resistance; Intermediate; Susceptible
In short: as §2

[9] = test system: A. baumannii clinical isolate LAC 18; experiment: Antibiotic susceptibility profile; format: cell-based, Acinetobacter baumannii; parameters: key: Resistance; Intermediate; Susceptible
In short: as §2

[10] = test system: A. baumannii clinical isolate LAC 09; experiment: Antibiotic susceptibility profile; format: cell-based, Acinetobacter baumannii; parameters: key: Resistance; Intermediate; Susceptible
In short: as §2

[11] = test system: A. baumannii clinical isolate LAC 04; experiment: Antibiotic susceptibility profile; format: cell-based, Acinetobacter baumannii; parameters: key: Resistance; Intermediate; Susceptible
In short: as §2

[12] = test system: A. baumannii clinical isolate LAC 14; experiment: Antibiotic susceptibility profile; format: cell-based, Acinetobacter baumannii; parameters: key: Resistance; Intermediate; Susceptible
In short: as §2

[13] = test system: A. baumannii clinical isolate NY E; experiment: Antibiotic susceptibility profile; format: cell-based, Acinetobacter baumannii; parameters: key: Resistance; Intermediate; Susceptible
In short: as §2

[14] = test system: A. baumannii clinical isolate LAC 12; experiment: Antibiotic susceptibility profile; format: cell-based, Acinetobacter baumannii; parameters: key: Resistance; Intermediate; Susceptible
In short: as §2

[15] = test system: A. baumannii clinical isolate LAC 17; experiment: Antibiotic susceptibility profile; format: cell-based, Acinetobacter baumannii; parameters: key: Resistance; Intermediate; Susceptible
In short: as §2

[16] = test system: A. baumannii clinical isolate LAC 05; experiment: Antibiotic susceptibility profile; format: cell-based, Acinetobacter baumannii; parameters: key: Resistance; Intermediate; Susceptible
In short: as §2

[17] = test system: A. baumannii reference strain 17978; experiment: Antibiotic susceptibility profile; format: cell-based, Acinetobacter baumannii; parameters: key: Resistance; Intermediate; Susceptible; conditions: strain 17978 (ATCC)
In short: as §2

[18] = test system: A. baumannii clinical isolate LAC 16; experiment: Antibiotic susceptibility profile; format: cell-based, Acinetobacter baumannii; parameters: key: Resistance; Intermediate; Susceptible
In short: as §2

[19] = test system: A. baumannii clinical isolate LAC 15; experiment: Antibiotic susceptibility profile; format: cell-based, Acinetobacter baumannii; parameters: key: Resistance; Intermediate; Susceptible
In short: as §2

[20] = test system: A. baumannii clinical isolate NY C; experiment: Antibiotic susceptibility profile; format: cell-based, Acinetobacter baumannii; parameters: key: Resistance; Intermediate; Susceptible
In short: as §2

[21] = test system: A. baumannii clinical isolate NY F; experiment: Antibiotic susceptibility profile; format: cell-based, Acinetobacter baumannii; parameters: key: Resistance; Intermediate; Susceptible
In short: as §2

[22] = test system: A. baumannii clinical isolate NY D; experiment: Antibiotic susceptibility profile; format: cell-based, Acinetobacter baumannii; parameters: key: Resistance; Intermediate; Susceptible
In short: as §2

[23] = test system: A. baumannii clinical isolate LAC 03; experiment: Antibiotic susceptibility profile; format: cell-based, Acinetobacter baumannii; parameters: key: Resistance; Intermediate; Susceptible
In short: as §2

[24] = test system: A. baumannii clinical isolate NY G; experiment: Antibiotic susceptibility profile; format: cell-based, Acinetobacter baumannii; parameters: key: Resistance; Intermediate; Susceptible
In short: as §2

[25] = test system: A. baumannii clinical isolate LAC 19; experiment: Antibiotic susceptibility profile; format: cell-based, Acinetobacter baumannii; parameters: key: Resistance; Intermediate; Susceptible
In short: as §2

[26] = test system: A. baumannii clinical isolate LAC 01; experiment: Antibiotic susceptibility profile; format: cell-based, Acinetobacter baumannii; parameters: key: Resistance; Intermediate; Susceptible
In short: as §2

[27] = test system: A. baumannii reference strain 15839; experiment: Antibiotic susceptibility profile; format: cell-based, Acinetobacter baumannii; parameters: key: Resistance; Intermediate; Susceptible; conditions: strain 15839 (ATCC)
In short: as §2

[28] = test system: A. baumannii clinical isolate LAC 06; experiment: Antibiotic susceptibility profile; format: cell-based, Acinetobacter baumannii; parameters: key: Resistance; Intermediate; Susceptible
In short: as §2

[29] = test system: A. baumannii clinical isolate LAC 02; experiment: Antibiotic susceptibility profile; format: cell-based, Acinetobacter baumannii; parameters: key: Resistance; Intermediate; Susceptible
In short: as §2

[30] = test system: A. baumannii clinical isolate LAC 07; experiment: Antibiotic susceptibility profile; format: cell-based, Acinetobacter baumannii; parameters: key: Resistance; Intermediate; Susceptible
In short: as §2

[31] = test system: A. baumannii clinical isolate NY B; experiment: Antibiotic susceptibility profile; format: cell-based, Acinetobacter baumannii; parameters: key: Resistance; Intermediate; Susceptible
In short: as §2

[32] = test system: A. baumannii clinical isolate LAC 08; experiment: Antibiotic susceptibility profile; format: cell-based, Acinetobacter baumannii; parameters: key: Resistance; Intermediate; Susceptible
In short: as §2

[33] = test system: A. baumannii reference strain AYE; experiment: Antibiotic susceptibility profile; format: cell-based, Acinetobacter baumannii; parameters: key: Resistance; Intermediate; Susceptible
In short: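 Clinical isolates from nosocomial infections in New York City and Los Angeles, tested alongside reference strains against only antibiotics having A. baumannii breakpoints; each scored R (resistant), I (intermediate) or S (susceptible).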

[34] = test system: A. baumannii reference strain 19606; experiment: Antibiotic susceptibility profile; format: cell-based, Acinetobacter baumannii; parameters: key: Resistance; Intermediate; Susceptible; conditions: strain 19606 (ATCC)
In short: as §2

[35] = test system: A. baumannii clinical isolate LAC 10; experiment: Antibiotic susceptibility profile; format: cell-based, Acinetobacter baumannii; parameters: key: Resistance; Intermediate; Susceptible
In short: as §2

[36] = test system: A. baumannii clinical isolate LAC 20; experiment: Antibiotic susceptibility profile; format: cell-based, Acinetobacter baumannii; parameters: key: Resistance; Intermediate; Susceptible
In short: as §2

Bovine Serum Albumin (BSA), sequence (P02769 25-607): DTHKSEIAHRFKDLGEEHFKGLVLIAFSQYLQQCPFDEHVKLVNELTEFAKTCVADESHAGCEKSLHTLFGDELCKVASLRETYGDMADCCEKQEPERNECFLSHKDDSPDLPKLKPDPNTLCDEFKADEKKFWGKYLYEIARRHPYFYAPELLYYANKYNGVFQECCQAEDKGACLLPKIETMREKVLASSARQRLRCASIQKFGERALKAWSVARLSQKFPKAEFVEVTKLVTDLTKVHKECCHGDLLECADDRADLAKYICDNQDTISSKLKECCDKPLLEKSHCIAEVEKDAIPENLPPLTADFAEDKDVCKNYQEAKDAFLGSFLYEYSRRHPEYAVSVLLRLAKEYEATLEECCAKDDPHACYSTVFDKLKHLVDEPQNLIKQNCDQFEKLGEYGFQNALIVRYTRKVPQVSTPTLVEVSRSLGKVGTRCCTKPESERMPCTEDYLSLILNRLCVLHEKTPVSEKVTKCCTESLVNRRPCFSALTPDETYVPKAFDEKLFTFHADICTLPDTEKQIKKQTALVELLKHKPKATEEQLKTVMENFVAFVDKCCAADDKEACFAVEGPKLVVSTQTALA
MurG protein, sequence (P17443 whole entry): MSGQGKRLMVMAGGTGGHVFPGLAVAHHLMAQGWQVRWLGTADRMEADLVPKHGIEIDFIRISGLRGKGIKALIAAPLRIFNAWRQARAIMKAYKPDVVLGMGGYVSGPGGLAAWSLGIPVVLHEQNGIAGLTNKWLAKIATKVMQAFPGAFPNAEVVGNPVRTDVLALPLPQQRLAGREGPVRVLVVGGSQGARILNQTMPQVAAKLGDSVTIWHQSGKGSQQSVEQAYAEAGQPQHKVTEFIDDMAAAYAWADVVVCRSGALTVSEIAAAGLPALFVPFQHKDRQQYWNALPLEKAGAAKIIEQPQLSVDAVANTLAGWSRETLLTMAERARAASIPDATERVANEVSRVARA

Row | Molecule | Antibiotic susceptibility [4] | Antibiotic susceptibility [5] | Antibiotic susceptibility [6] | Antibiotic susceptibility [7] | Antibiotic susceptibility [8] | Antibiotic susceptibility [9] | Antibiotic susceptibility [10] | Antibiotic susceptibility [11] | Antibiotic susceptibility [12] | Antibiotic susceptibility [13] | Antibiotic susceptibility [14] | Antibiotic susceptibility [15] | Antibiotic susceptibility [16] | Antibiotic susceptibility [17] | Antibiotic susceptibility [18] | Antibiotic susceptibility [19] | Antibiotic susceptibility [20] | Antibiotic susceptibility [21] | Antibiotic susceptibility [22] | Antibiotic susceptibility [23] | other results
1 | COc1cc(/C=C/C(=O)O)ccc1O [ferulic acid] | – | – | – | – | – | – | – | – | – | – | – | – | – | – | – | – | – | – | – | – | binding onto pre-immobilized BSA (SPR sensorgrams) [1]: binding
2 | CN=C1NC(=O)[C@H]([C@H](C)c2c[nH]c3ccccc23)O1 [indolmycin] | – | – | – | – | – | – | – | – | – | – | – | – | – | – | – | – | – | – | – | – | interaction with TrpS protein by SPR [2]: Specific interaction
3 | ramoplanin | – | – | – | – | – | – | – | – | – | – | – | – | – | – | – | – | – | – | – | – | binding to MurG protein by SPR [3]: Dose-dependent specific binding
4 | CO/N=C(\C(=O)N[C@@H]1C(=O)N2C(C(=O)[O-])=C(C[N+]3(C)CCCC3)CS[C@H]12)c1csc(N)n1 [FEP, Cefepime] | I | R | I | R | R | R | R | I | R | R | R | R | I | S | R | R | R | R | R | R | Antibiotic susceptibility [24]: R; Antibiotic susceptibility [25]: R; Antibiotic susceptibility [26]: R; Antibiotic susceptibility [27]: I; Antibiotic susceptibility [28]: S; Antibiotic susceptibility [29]: R; Antibiotic susceptibility [30]: R; Antibiotic susceptibility [31]: R; Antibiotic susceptibility [32]: I; Antibiotic susceptibility [33]: R; Antibiotic susceptibility [34]: I; Antibiotic susceptibility [35]: R; Antibiotic susceptibility [36]: R
5 | Gentamicin | R | R | S | R | I | R | R | R | R | R | R | R | R | S | R | I | R | R | R | R | Antibiotic susceptibility [24]: S; Antibiotic susceptibility [25]: R; Antibiotic susceptibility [26]: R; Antibiotic susceptibility [27]: R; Antibiotic susceptibility [28]: R; Antibiotic susceptibility [29]: I; Antibiotic susceptibility [30]: R; Antibiotic susceptibility [31]: R; Antibiotic susceptibility [32]: R; Antibiotic susceptibility [33]: R; Antibiotic susceptibility [34]: R; Antibiotic susceptibility [35]: R; Antibiotic susceptibility [36]: R
6 | NC[C@H]1O[C@H](O[C@H]2[C@H](O)[C@@H](O[C@H]3O[C@H](CO)[C@@H](O)[C@H](N)[C@H]3O)[C@H](N)C[C@@H]2N)[C@H](N)C[C@@H]1O [TOB, Tobramycin] | R | R | S | S | S | R | R | R | S | R | S | R | R | S | R | S | R | R | R | R | Antibiotic susceptibility [24]: I; Antibiotic susceptibility [25]: R; Antibiotic susceptibility [26]: R; Antibiotic susceptibility [27]: R; Antibiotic susceptibility [28]: S; Antibiotic susceptibility [29]: R; Antibiotic susceptibility [30]: R; Antibiotic susceptibility [31]: R; Antibiotic susceptibility [32]: R; Antibiotic susceptibility [33]: R; Antibiotic susceptibility [34]: S; Antibiotic susceptibility [35]: R; Antibiotic susceptibility [36]: R

— patent US20080090734A1, “DRUG SCREENING AND TARGET IDENTIFICATION USING SPR IMAGING OF TARGET PROTEIN ARRAYS” (The Trustees of California State University, priority 2006, published 2008)
